Data as given in patent US20260184662A1, “COMPOSITE OF ACID AND SALT, AND PREPARATION METHOD THEREFOR” (NANJING NUTRABUILDING BIO-TECH CO., LTD., priority 2022, published 2026).
Where two headings read alike, the source gives them in different places.

Legend:
[1] = Determination of moisture contents with KF moisture meter at different time points; format: physicochemical; conditions: temperature 23° C., humidity 92.5%
Text: (§1) For R-3-hydroxybutyric acid, potassium R-3-hydroxybutyrate, mixture of R-3-hydroxybutyric acid and potassium R-3-hydroxybutyrate, and R-3-hydroxybutyric acid·potassium R-3-hydroxybutyrate complex of Example 1, under a certain condition, KF moisture meter was used to determine the moisture contents at different time points.
as §1, with “3-hydroxybutyric” for “R-3-hydroxybutyric”, “3-hydroxybutyrate,” for “R-3-hydroxybutyrate,”, “3-hydroxybutyrate” for “R-3-hydroxybutyrate”, “7,” for “1,”
as §1, with “S-3-hydroxybutyric” for “R-3-hydroxybutyric”, “S-3-hydroxybutyrate,” for “R-3-hydroxybutyrate,”, “S-3-hydroxybutyrate” for “R-3-hydroxybutyrate”, “13,” for “1,”
as §1, with “calcium” for “potassium”, “acid·calcium” for “acid·potassium”, “19,” for “1,”
(§2) For 3-hydroxybutyric acid, calcium 3-hydroxybutyrate, mixture of 3-hydroxybutyric acid and calcium 3-hydroxybutyrate, and 3-hydroxybutyric acid·calcium 3-hydroxybutyrate complex of Example 25, under a certain condition, KF moisture meter was used to determine the moisture contents at different time points.
as §2, with “S-3-hydroxybutyric” for “3-hydroxybutyric”, “S-3-hydroxybutyrate,” for “3-hydroxybutyrate,”, “S-3-hydroxybutyrate” for “3-hydroxybutyrate”, “31,” for “25,”
as §1, with “magnesium” for “potassium”, “acid·magnesium” for “acid·potassium”, “37,” for “1,”
as §2, with “magnesium” for “calcium”, “acid·magnesium 3-hydroxy butyrate” for “acid·calcium 3-hydroxybutyrate”, “43,” for “25,”
For S-3-hydroxybutyric acid, magnesium S-3-hydroxybutyrate, mixture of S-3-hydroxybutyric acid and magnesium S-3-hydroxybutyrate, and S-3-hydroxybutyric acid·magnesium S-3-hydroxybutyrate complex of Example 49, under a certain condition, KF moisture meter was used to determine the moisture contents at different time points.
(§3) For R-3-hydroxypentanoic acid, sodium R-3-hydroxypentanoate, mixture of R-3-hydroxypentanoic acid and sodium R-3-hydroxypentanoate, and R-3-hydroxypentanoic acid·sodium R-3-hydroxypentanoate complex of Example 55, under a certain condition, KF moisture meter was used to determine the moisture contents at different time points.
as §3, with “3-hydroxypentanoic” for “R-3-hydroxypentanoic”, “3-hydroxypentanoate,” for “R-3-hydroxypentanoate,”, “3-hydroxypentanoate” for “R-3-hydroxypentanoate”, “61,” for “55,”
as §3, with “S-3-hydroxypentanoic” for “R-3-hydroxypentanoic”, “S-3-hydroxypentanoate,” for “R-3-hydroxypentanoate,”, “S-3-hydroxypentanoate” for “R-3-hydroxypentanoate”, “67,” for “55,”

[2] = Stability of complexes at 30-80° C.; format: physicochemical
Text: For R-3-hydroxybutyric acid, potassium R-3-hydroxybutyrate, mixture of R-3-hydroxybutyric acid and potassium R-3-hydroxybutyrate, and R-3-hydroxybutyric acid·potassium R-3-hydroxybutyrate complex of Example 1, […]
For 3-hydroxybutyric acid, potassium 3-hydroxybutyrate, mixture of 3-hydroxybutyric acid and potassium 3-hydroxybutyrate, and 3-hydroxybutyric acid·potassium 3-hydroxybutyrate complex of Example 7, […]
For S-3-hydroxybutyric acid, potassium S-3-hydroxybutyrate, mixture of S-3-hydroxybutyric acid and potassium S-3-hydroxybutyrate, and S-3-hydroxybutyric acid·potassium S-3-hydroxybutyrate complex of Example 13, […]
For R-3-hydroxybutyric acid, calcium R-3-hydroxybutyrate, mixture of R-3-hydroxybutyric acid and calcium R-3-hydroxybutyrate, and R-3-hydroxybutyric acid·calcium R-3-hydroxybutyrate complex of Example 19, […]
For 3-hydroxybutyric acid, calcium 3-hydroxybutyrate, mixture of 3-hydroxybutyric acid and calcium 3-hydroxybutyrate, and 3-hydroxybutyric acid·calcium 3-hydroxybutyrate complex of Example 25, […]
For S-3-hydroxybutyric acid, calcium S-3-hydroxybutyrate, mixture of S-3-hydroxybutyric acid and calcium S-3-hydroxybutyrate, and S-3-hydroxybutyric acid·calcium S-3-hydroxybutyrate complex of Example 31, […]
For R-3-hydroxybutyric acid, magnesium R-3-hydroxybutyrate, mixture of R-3-hydroxybutyric acid and magnesium R-3-hydroxybutyrate, and R-3-hydroxybutyric acid·magnesium R-3-hydroxybutyrate complex of Example 37, […]
For 3-hydroxybutyric acid, magnesium 3-hydroxybutyrate, mixture of 3-hydroxybutyric acid and magnesium 3-hydroxybutyrate, and 3-hydroxybutyric acid·magnesium 3-hydroxybutyrate complex of Example 43, […]
For S-3-hydroxybutyric acid, magnesium S-3-hydroxybutyrate, mixture of S-3-hydroxybutyric acid and magnesium S-3-hydroxybutyrate, and S-3-hydroxybutyric acid·magnesium S-3-hydroxybutyrate complex of Example 49, […]
For R-3-hydroxypentanoic acid, sodium R-3-hydroxypentanoate, mixture of R-3-hydroxypentanoic acid and sodium R-3-hydroxypentanoate, and R-3-hydroxypentanoic acid·sodium R-3-hydroxypentanoate complex of Example 55, […]
For 3-hydroxypentanoic acid, sodium 3-hydroxypentanoate, mixture of 3-hydroxypentanoic acid and sodium 3-hydroxypentanoate, and 3-hydroxypentanoic acid·sodium 3-hydroxypentanoate complex of Example 61, […]
For S-3-hydroxypentanoic acid, sodium S-3-hydroxypentanoate, mixture of S-3-hydroxypentanoic acid and sodium S-3-hydroxypentanoate, and S-3-hydroxypentanoic acid·sodium S-3-hydroxypentanoate complex of Example 67, […]

| Stability [2] | Compound | moisture content (%) ([1]; 30 min) | moisture content (%) ([1]; 1 h) | moisture content (%) ([1]; 2 h) | moisture content (%) ([1]; 4 h) | moisture content (%) ([1]; 6 h) | moisture content (%) ([1]; 7 h) | moisture content (%) ([1]; 11 h) | moisture content (%) ([1]; 22 h) | Stability ([2]; 30° C.) | Stability ([2]; 40° C.) | Stability ([2]; 50° C.) | Stability ([2]; 60° C.) | Stability ([2]; 80° C.) | Stability ([2]; 70° C.) |
| --- | --- | --- | --- | --- | --- | --- | --- | --- | --- | --- | --- | --- | --- | --- | --- |
|  | C[C@H](O)CC(=O)O.C[C@H](O)CC(=O)[O-].C[C@H](O)CC(=O)[O-].[Mg+2] [S-3-hydroxybutyric acid·magnesium S-3-hydroxybutyrate] | 0.58% | 0.98% | 1.79% | 3.16% | 4.58% | 5.64% | 8.86% | 14.74% | unchanged | unchanged | unchanged | unchanged | melted |  |
|  | C[C@H](O)CC(=O)O.C[C@H](O)CC(=O)[O-].[K+] [S-3-hydroxybutyric acid·potassium S-3-hydroxybutyrate] | 0.72% | 1.34% | 196% | 3.72% | 5.99% | 6.82% | 9.83% | 18.28% | unchanged | unchanged | unchanged | unchanged | melted |  |
| unchanged | CC[C@H](O)CC(=O)O.CC[C@H](O)CC(=O)[O-].[Na+] [S-3-hydroxypentanoic acid·sodium S-3-hydroxypentanoate] | 0.59% | 1.15% | 1.54% | 2.73% | 3.99% | 4.43% | 7.03% | 14.11% |  |  |  |  |  |  |
| unchanged | CCC(O)CC(=O)[O-].[Na+] (stereo not drawn) [Sodium 3-hydroxypentanoate, sodium 3-hydroxypentanoate] | 0.96% | 1.83% | 3.02% | 4.46% | 6.28% | 6.96% | 10.72% | 20.79% |  |  |  |  |  |  |
| unchanged | CC[C@@H](O)CC(=O)[O-].[Na+] [Sodium R-3-hydroxypentanoate, sodium R-3-hydroxypentanoate] | 0.87% | 1.68% | 2.83% | 4.36% | 6.13% | 6.70% | 10.57% | 20.57% |  |  |  |  |  |  |
| unchanged | CC[C@H](O)CC(=O)[O-].[Na+] [Sodium S-3-hydroxypentanoate, sodium S-3-hydroxypentanoate] | 0.91% | 1.73% | 2.91% | 4.43% | 6.22% | 6.79% | 10.61% | 20.44% |  |  |  |  |  |  |
|  | calcium 3-hydroxybutyrate | 0.97% | 1.81% | 2.34% | 4.12% | 5.22% | 6.01% | 10.24% | 17.72% | unchanged | unchanged |  | melted | melted | melted |
|  | calcium R-3-hydroxybutyrate | 0.92% | 1.82% | 2.43% | 4.22% | 5.35% | 6.04% | 10.44% | 17.68% | unchanged | unchanged |  | melted | melted | melted |
|  | magnesium 3-hydroxybutyrate | 0.81% | 1.25% | 2.23% | 4.12% | 6.43% | 8.14% | 12.42% | 18.66% | unchanged | unchanged |  | Melted | melted | melted |
|  | magnesium R-3-hydroxybutyrate | 0.82% | 1.22% | 2.13% | 4.22% | 6.35% | 8.04% | 12.44% | 18.68% | unchanged | unchanged |  | melted | melted | melted |
